Results: patent US10793526B2, “Hydantoin derivative compounds, methods of use and methods of treatment” (University of South Florida, priority 2016, dated 2020)

Assays:
[1] = test system: vancomycin-resistant Enterococcus faecalis (VREF, ATCC 700802); assay: Minimum inhibitory concentration (MIC) assay, VREF; type: cell-based; conditions: 16 h incubation; for MIC: Enterococcus faecalis, ATCC700802, Gram positive, read-out: MIC (μg/mL) VREF; for MIC (μg/mL) VREF: Gram positive
Procedure: (§1) Minimum inhibitory concentrations (MICs) assay.^2
(§2) All compounds were tested against six different bacteria strains: methicillin-resistant S. aureus (MRSA, ATCC 33591), E. coli (ATCC 25922), methicillin-resistant S. epidermidis (MRSE, RP62A), K. pneumoniae (ATCC 13383), vancomycin-resistant Enterococcus faecalis (VREF, ATCC 700802), P. aeruginosa (ATCC 27853). One colony of each bacteria was inoculated in 4 mL TSB buffer at 37° C. overnight, which was then diluted 100 times, and the bacteria were allowed to grow to the mid-logarithmic phase. 50 μL hydantoin compounds in 2-fold serial dilution of TSB were added in the 96-well plate, then 50 μL diluted bacterial in TSB medium (1×10^6 CFU/mL) was added to each well. After 16 h of incubation at 37° C., the absorption at 600 nm wavelength on a Biotek Synergy HT microtiter plate reader was recorded. Minimum inhibitory concentrations were determined as the lowest concentrations that inhibited bacteria growth completely.

[2] = test system: methicillin-resistant S. epidermidis (MRSE, RP62A); assay: Minimum inhibitory concentration (MIC) assay, MRSE; type: cell-based, Staphylococcus epidermidis; conditions: Gram positive, 16 h incubation; for MIC: Staphylococcus epidermidis, MRSE, read-out: MIC (μg/mL) MRSE
Procedure: as §1, §2

[3] = test system: E. coli (ATCC 25922); assay: Minimum inhibitory concentration (MIC) assay, E. coli; type: cell-based, Escherichia coli; conditions: 16 h incubation; for MIC: Escherichia coli, ATCC25922, Gram negative, read-out: MIC (μg/mL) E. coli; for MIC (μg/mL) E. coli: Gram negative
Procedure: as §1, §2

[4] = test system: K. pneumoniae (ATCC 13383); assay: Minimum inhibitory concentration (MIC) assay, K. pneumoniae; type: cell-based, Klebsiella pneumoniae; conditions: 16 h incubation; for MIC: Klebsiella pneumoniae, ATCC13383, Gram negative, read-out: MIC (μg/mL) K.P.; for MIC (μg/mL) K.P.: Gram negative
Procedure: as §1, §2

[5] = test system: methicillin-resistant S. aureus (MRSA, ATCC 33591); assay: Minimum inhibitory concentration (MIC) assay, MRSA; type: cell-based, Staphylococcus aureus; conditions: Gram positive, ATCC 33591, 16 h incubation; for MIC: Staphylococcus aureus, read-out: MIC (μg/mL) MRSA
Procedure: as §1, §2

[6] = test system: P. aeruginosa (ATCC 27853); assay: Minimum inhibitory concentration (MIC) assay, P. aeruginosa; type: cell-based, Pseudomonas aeruginosa; conditions: Gram negative, ATCC 27853, 16 h incubation; for MIC: Pseudomonas aeruginosa, ATCC27853, read-out: MIC (μg/mL) P.A.
Procedure: as §1, §2

Row | SMILES | MIC [1] [µg/mL] | MIC [2] [µg/mL] | MIC [3] [µg/mL] | MIC [4] [µg/mL] | MIC [5] [µg/mL] | MIC [6] [µg/mL] | MIC (μg/mL) VREF [1] [µg/mL] | MIC (μg/mL) MRSE [2] [µg/mL] | MIC (μg/mL) E. coli [3] [µg/mL] | MIC (μg/mL) K.P. [4] [µg/mL] | MIC (μg/mL) MRSA [5] [µg/mL] | MIC (μg/mL) P.A. [6] [µg/mL]
1 | CCCCCCCCCCCCCC(=O)N[C@@H](CCCCN)CN1CC(=O)N(C2CCCCC2)C1=O [Compound 11, (S)—N-(6-amino-1-(3-cyclohexyl-2,4-dioxoimidazolidin-1-yl)hexan-2-yl)tetradecanamide] | 6.25 | 6.25 | 12.5 | 6.25 | 3.12 | > 50 |  |  |  |  |  | 
2 | CCCCCCCCCCCCCCCC(=O)N[C@@H](CCCCN)CN1CC(=O)N(C2CCCCC2)C1=O [Compound 12, (S)—N-(6-amino-1-(3-cyclohexyl-2,4-dioxoimidazolidin-1-yl)hexan-2-yl)palmitamide] | 25 | 25 | > 50 | > 50 | 3.12 | > 50 |  |  |  |  |  | 
3 | CCCCCCCCCCCCCC(=O)N[C@@H](CCCCN)CN1CC(=O)N(C23CC4CC(CC(C4)C2)C3)C1=O [Compound 15, N—((S)-1-(3-((3R,5R,7R)-adamantan-1-yl)-2,4-dioxoimidazolidin-1-yl)-6-aminohexan-2-yl) tetradecanamide] |  |  |  |  |  |  | 6.25 | 3.15 | >50 | >50 | 3.12 | >50
4 | CCCCCCCCCCCCCCCC(=O)N[C@@H](CCCCN)CN1CC(=O)N(c2ccc(OC)cc2)C1=O [Compound 20, (S)—N-(6-amino-1-(3-(4-methoxyphenyl)-2,4-dioxoimidazolidin-1-yl)hexan-2-yl)palmitamide] | 6.25 | 6.25 | > 50 | > 50 | 3.12 | > 50 |  |  |  |  |  | 

Results, then the compound that gave them:

Row | MIC [1] [µg/mL] | MIC [2] [µg/mL] | MIC [3] [µg/mL] | MIC [4] [µg/mL] | MIC [5] [µg/mL] | MIC [6] [µg/mL] | MIC (μg/mL) VREF [1] [µg/mL] | MIC (μg/mL) MRSE [2] [µg/mL] | MIC (μg/mL) E. coli [3] [µg/mL] | MIC (μg/mL) K.P. [4] [µg/mL] | MIC (μg/mL) MRSA [5] [µg/mL] | MIC (μg/mL) P.A. [6] [µg/mL] | SMILES
5 | 6.25 | 6.25 | 6.25 | 12.5 | 6.25 | > 50 |  |  |  |  |  |  | CCCCCCCCCCCCCC(=O)N[C@@H](CCCCN)CN1CC(=O)N(CCCC)C1=O [Compound 7, (S)—N-(6-amino-1-(3-butyl-2,4-dioxoimidazolidin-1-yl)hexan-2-yl)tetradecanamide]
6 | 6.25 | 6.25 | > 50 | > 50 | 6.25 | > 50 |  |  |  |  |  |  | CCCCCCCCCCCCCCCC(=O)N[C@@H](CCCCN)CN1CC(=O)N(CCCC)C1=O [Compound 8, (S)—N-(6-amino-1-(3-butyl-2,4-dioxoimidazolidin-1-yl)hexan-2-yl)palmitamide]
7 |  |  |  |  |  |  | 6.25 | 6.25 | 12.5 | >50 | 6.25 | >50 | CCCCCCCCCCCC(=O)N[C@@H](CCCCN)CN1CC(=O)N(C23CC4CC(CC(C4)C2)C3)C1=O [Compound 14, N—((S)-1-(3-((3R,5R,7R)-adamantan-1-yl)-2,4-dioxoimidazolidin-1-yl)-6-aminohexan-2-yl) dodecanamide]
8 |  |  |  |  |  |  | >50 | >50 | >50 | >50 | >50 | >50 | CCCCCCCCCCCCCCCC(=O)N[C@@H](CCCCN)CN1CC(=O)N(C23CC4CC(CC(C4)C2)C3)C1=O [Compound 16, N—((S)-1-(3-((3R,5R,7R)-adamantan-1-yl)-2,4-dioxoimidazolidin-1-yl)-6-aminohexan-2-yl) palmitamide]
9 | 6.25 | 6.25 | 6.25 | 25 | 6.25 | > 50 |  |  |  |  |  |  | CCCCCCCCCCCCCC(=O)N[C@@H](CCCCN)CN1CC(=O)N(c2ccc(OC)cc2)C1=O [Compound 19, (S)—N-(6-amino-1-(3-(4-methoxyphenyl)-2,4-dioxoimidazolidin-1-yl)hexan-2-yl)tetradecanamide]
